Our source for the IC50 values is patent publication US20220372067A1, “3.ALPHA.-HYDROXY-17.BETA.-AMIDE NEUROACTIVE STEROIDS AND COMPOSITIONS THEREOF” (SAGE THERAPEUTICS, INC., priority 2018, published 2022).

Structures are written as SMILES. pIC50: −log10 of the molar value.

The assay has as its target GABAA receptor (TBPS binding site), rat brain cortical membranes. In words: [35S]-TBPS binding assay, rat brain cortical membranes in the presence of 5 mM GABA. Particulars: inhibition of 3 nM [35S]-TBPS binding. How it is done:
[^35S]-t-Butylbicyclophosphorothionate (TBPS) binding assays using rat brain cortical membranes in the presence of 5 mM GABA has been described (Gee et al, J. Pharmacol. Exp. Ther. 1987, 241, 346-353; Hawkinson et al, Mol. Pharmacol. 1994, 46, 977-985; Lewin, A. H et al., Mol. Pharmacol. 1989, 35, 189-194).
Briefly, cortices are rapidly removed following decapitation of carbon dioxide-anesthetized Sprague-Dawley rats (200-250 g). The cortices are homogenized in 10 volumes of ice-cold 0.32 M sucrose using a glass/teflon homogenizer and centrifuged at 1500×g for 10 min at 4° C. The resultant supernatants are centrifuged at 10,000×g for 20 min at 4° C. to obtain the P2 pellets. The P2 pellets are resuspended in 200 mM NaCl/50 mM Na—K phosphate pH 7.4 buffer and centrifuged at 10,000×g for 10 min at 4° C. This washing procedure is repeated twice and the pellets are resuspended in 10 volumes of buffer. Aliquots ([…]) of the membrane suspensions are incubated with 3 nM [^35S]-TBPS and […] aliquots of test drug dissolved in dimethyl sulfoxide (DMSO) (final 0.5%) in the presence of 5 mM GABA. The incubation is brought to a final volume of 1.0 mL with buffer. Nonspecific binding is determined in the presence of […] and ranged from 15 to 25%. Following a 90 min incubation at room temp, the assays are terminated by filtration through glass fiber filters (Schleicher and Schuell No. 32) using a cell harvester (Brandel) and rinsed three times with ice-cold buffer. Filter bound radioactivity is measured by liquid scintillation spectrometry. Non-linear curve fitting of the overall data for each drug averaged for each concentration is done using Prism (GraphPad). […] The concentration of test compound producing 50% inhibition (IC50) of specific binding and the maximal extent of inhibition (Imax) are determined for the individual experiments with the same model used for the overall data and then the means±SEM.s of the individual experiments are calculated.
Various compounds are or can be screened to determine their potential as modulators of [^35S]-TBPS binding in vitro. These assays are or can be performed in accordance with the above
As usually defined, the pIC50 is −log10 of the IC50, conventionally taken in molar units. On to `COC[C@@]1(O)CC[C@H]2[C@@H](CC[C@@H]3[C@@H]2CC[C@]2(C)[C@@H](C(=O)Nc4cccc(C)n4)CC[C@@H]32)C1` [Example 7, (3R,5S,8R,9R,10S,13S,14S,17S)-3-hydroxy-3-(methoxymethyl)-13-methyl-N-(6-methylpyridin-2-yl)hexadecahydro-1H-cyclopenta[a]phenanthrene-17-carboxamide], for which the pIC50 is over 7.00.

Take `CCOC[C@@]1(O)CC[C@H]2[C@H](CC[C@@H]3[C@@H]2CC[C@]2(C)[C@@H](C(=O)Nc4ccc(C#N)nn4)CC[C@@H]32)C1` [Example 29]: the pIC50 is over 7.00.

`CC[C@@]1(O)CC[C@@]2(C)[C@H](CC[C@@H]3[C@@H]2CC[C@]2(C)[C@@H](C(=O)Nc4nc(C)ccc4Cl)CC[C@@H]32)C1` [Example 15, (3R,5R,8R,9S,10S,13S,14S,17S)-N-(3-chloro-6-methylpyridin-2-yl)-3-ethyl-3-hydroxy-10,13-dimethylhexadecahydro-1H-cyclopenta[a]phenanthrene-17-carboxamide]: the pIC50 is 6.00 to 7.00.

As to `CCOC[C@@]1(O)CC[C@H]2[C@H](CC[C@@H]3[C@@H]2CC[C@]2(C)[C@@H](C(=O)Nc4cnc(C#N)cn4)CC[C@@H]32)C1` [Example 28], the negative-log IC50 (pIC50) is over 7.00.

Consider `CCOC[C@@]1(O)CC[C@H]2[C@H](CC[C@@H]3[C@@H]2CC[C@]2(C)[C@@H](C(=O)Nc4ccnc(C)n4)CC[C@@H]32)C1` [Example 63], for which the pIC50 is over 7.00.

Take `CCOC[C@@]1(O)CC[C@H]2[C@H](CC[C@@H]3[C@@H]2CC[C@]2(C)[C@@H](C(=O)Nc4cccc(C#N)n4)CC[C@@H]32)C1` [Example 60]: the pIC50 was over 7.00.

`COC[C@@]1(O)CC[C@H]2[C@H](CC[C@@H]3[C@@H]2CC[C@]2(C)[C@@H](C(=O)Nc4ccc(N5CCCC5=O)nc4C)CC[C@@H]32)C1` [Example 49]: the pIC50 is over 7.00.

Consider `COC[C@@]1(O)CC[C@H]2[C@H](CC[C@@H]3[C@@H]2CC[C@]2(C)[C@@H](C(=O)Nc4cccnc4C)CC[C@@H]32)C1` [Example 51], for which the pIC50 is over 7.00.

As to `CCC[C@@]1(O)CC[C@@]2(C)[C@H](CC[C@@H]3[C@@H]2CC[C@]2(C)[C@@H](C(=O)Nc4ccc(C#N)cn4)CC[C@@H]32)C1` [Example 68, (3R,5R,8R,9S,10S,13S,14S,17S)-N-(5-cyanopyridin-2-yl)-3-hydroxy-10, 13-dimethyl-3-propylhexadecahydro-1H-cyclopenta[a]phenanthrene-17-carboxamide], the pIC50 was over 7.00.

Turning to `CCOC[C@@]1(O)CC[C@H]2[C@H](CC[C@@H]3[C@@H]2CC[C@]2(C)[C@@H](C(=O)Nc4cc(C)nn4C)CC[C@@H]32)C1` [Example 30], the pIC50 is over 7.00.

Turning to `CCOC[C@@]1(O)CC[C@@]2(CC)[C@@H](CC[C@H]3[C@@H]4CC[C@H](C(=O)Nc5ccc(C#N)cn5)[C@@]4(C)CC[C@@H]32)C1` [Example 12, (3R,5S,8S,9S,10S,13S,14S,17S)-N-(5-cyanopyridin-2-yl)-3-(ethoxymethyl)-10-ethyl-3-hydroxy-13-methylhexadecahydro-1H-cyclopenta[a]phenanthrene-17-carboxamide], the pIC50 was over 7.00.

Consider `CCOC[C@@]1(O)CC[C@@]2(CC)[C@H](CC[C@H]3[C@@H]4CC[C@H](C(=O)Nc5cc(C)nn5C)[C@@]4(C)CC[C@@H]32)C1` [Example 8, (3R,5R,8S,9S,10S,13S,14S,17S)-N-(1,3-dimethyl-1H-pyrazol-5-yl)-3-(ethoxymethyl)-10-ethyl-3-hydroxy-13-methylhexadecahydro-1H-cyclopenta[a]phenanthrene-17-carboxamide], for which the negative logarithm of the IC50 (pIC50) was over 7.00.

For the compound `CCOC[C@@]1(O)CC[C@@]2(CC)[C@H](CC[C@H]3[C@@H]4CC[C@H](C(=O)Nc5cnc(C#N)cn5)[C@@]4(C)CC[C@@H]32)C1` [Example 11, (3R,5R,8S,9S,10S,13S,14S,17S)-N-(5-cyanopyrazin-2-yl)-3-(ethoxymethyl)-10-ethyl-3-hydroxy-13-methylhexadecahydro-1H-cyclopenta[a]phenanthrene-17-carboxamide], the negative logarithm of the IC50 (pIC50) was over 7.00.

Regarding `CCOC[C@@]1(O)CC[C@H]2[C@H](CC[C@@H]3[C@@H]2CC[C@]2(C)[C@@H](C(=O)Nc4ccc(N5CCCC5=O)nc4C)CC[C@@H]32)C1` [Example 65], the negative-log IC50 (pIC50) was over 7.00.

In the case of `COC[C@@]1(O)CC[C@H]2[C@H](CC[C@@H]3[C@@H]2CC[C@]2(C)[C@@H](C(=O)Nc4cccc(-n5ccc(C)n5)n4)CC[C@@H]32)C1` [Example 45], the negative logarithm of the IC50 (pIC50) is over 7.00.

Consider `COC[C@@]1(O)CC[C@H]2[C@H](CC[C@@H]3[C@@H]2CC[C@]2(C)[C@@H](C(=O)Nc4ccc(C#N)nc4C)CC[C@@H]32)C1` [Example 41], for which the pIC50 was over 7.00.

On to `Cc1nc2n(c1NC(=O)[C@H]1CC[C@H]3[C@@H]4CC[C@@H]5C[C@](C)(O)CC[C@@H]5[C@H]4CC[C@]13C)CCCC2` [Example 13, (3R,5R,8R,9R,10S,13S,14S,17S)-3-hydroxy-3,13-dimethyl-N-(2-methyl-5,6,7,8-tetrahydroimidazo[1,2-a]pyridin-3-yl)hexadecahydro-1H-cyclopenta[a]phenanthrene-17-carboxamide], for which the pIC50 is 6.00 to 7.00.

For `CCOC[C@@]1(O)CC[C@H]2[C@H](CC[C@@H]3[C@@H]2CC[C@]2(C)[C@@H](C(=O)Nc4cc(C5CC5)nn4C)CC[C@@H]32)C1` [Example 56], the pIC50 was over 7.00.

Regarding `CCC[C@@]1(O)CC[C@H]2[C@H](CC[C@@H]3[C@@H]2CC[C@]2(C)[C@@H](C(=O)Nc4ccc(C#N)cn4)CC[C@@H]32)C1` [Example 67, (3R,5R,8R,9R,10S,13S,14S,17S)-N-(5-cyanopyridin-2-yl)-3-hydroxy-13-methyl-3-propylhexadecahydro-1H-cyclopenta[a]phenanthrene-17-carboxamide], the pIC50 is over 7.00.

For `COC[C@@]1(O)CC[C@@]2(C)[C@@H](CC[C@@H]3[C@@H]2CC[C@]2(C)[C@@H](C(=O)Nc4cccc(C)n4)CC[C@@H]32)C1` [Example 5, (3R,5S,8R,9S,10S,13S,14S,17S)-3-hydroxy-3-(methoxymethyl)-10,13-dimethyl-N-(6-methylpyridin-2-yl)hexadecahydro-1H-cyclopenta[a]phenanthrene-17-carboxamide], the pIC50 was over 7.00.

With `CCOC[C@@]1(O)CC[C@H]2[C@H](CC[C@@H]3[C@@H]2CC[C@]2(C)[C@@H](C(=O)Nc4nc(C)ccc4C)CC[C@@H]32)C1` [Example 59], the pIC50 was 6.00 to 7.00.

As to `CCOC[C@@]1(O)CC[C@@]2(C)[C@H](CC[C@@H]3[C@@H]2CC[C@]2(C)[C@@H](C(=O)Nc4ccc(C#N)cn4)CC[C@@H]32)C1` [Example 31], the pIC50 was over 7.00.

As for `Cc1nc2ccccn2c1NC(=O)[C@H]1CC[C@H]2[C@@H]3CC[C@@H]4C[C@](C)(O)CC[C@@H]4[C@H]3CC[C@]12C` [Example 6, (3R,5R,8R,9R,10S,13S,14S,17S)-3-hydroxy-3,13-dimethyl-N-(2-methylimidazo[1,2-a]pyridin-3-yl)hexadecahydro-1H-cyclopenta[a]phenanthrene-17-carboxamide], the pIC50 was 6.00 to 7.00.

For `CCOC[C@@]1(O)CC[C@H]2[C@H](CC[C@@H]3[C@@H]2CC[C@]2(C)[C@@H](C(=O)Nc4cnc(C)cn4)CC[C@@H]32)C1` [Example 25], the negative logarithm of the IC50 (pIC50) was over 7.00.

Regarding `CCOC[C@@]1(O)CC[C@@]2(COC(C)C)[C@H](CC[C@H]3[C@@H]4CC[C@H](C(=O)Nc5ccc(C#N)cn5)[C@@]4(C)CC[C@@H]32)C1` [Example 9, (3R,5R,8S,9S,10R,13S,14S,17S)-N-(5-cyanopyridin-2-yl)-3-(ethoxymethyl)-3-hydroxy-10-(isopropoxymethyl)-13-methylhexadecahydro-1H-cyclopenta[a]phenanthrene-17-carboxamide], the negative logarithm of the IC50 (pIC50) was over 7.00.

`CCOC[C@@]1(O)CC[C@H]2[C@H](CC[C@@H]3[C@@H]2CC[C@]2(C)[C@@H](C(=O)Nc4cccnc4)CC[C@@H]32)C1` [Example 21]: the negative logarithm of the IC50 (pIC50) was 6.00 to 7.00.

In the case of `COC[C@@]1(O)CC[C@H]2[C@H](CC[C@@H]3[C@@H]2CC[C@]2(C)[C@@H](C(=O)Nc4ncccc4Cl)CC[C@@H]32)C1` [Example 39], the pIC50 is 6.00 to 7.00.
